“Also recorded” adds a separate entry of the source. Where two headings read alike, the source gives them in different places.
Experiments:
[1] = orthopedic implant; cited from earlier work
[2] = test system: BM-derived pre-osteoclast cultures (wild type bone marrow cells); assay: TRAP staining of multinucleated osteoclasts in ex vivo osteoclast culture; assay type: cell-based, mice; conditions: FIG. 5: NSC-87877 50 nM, Aldronates 25 nM, or combination
Method: Whole bone marrow (BM) was flushed from the explanted femurs and tibiae of euthanized mice with DMEM (Invitrogen, N.Y), and centrifuged at 1,500 rpm for 5 minutes. The pelletized cells were resuspended in red blood cell (RBC) lysis buffer, re-centrifuged at 1,500 rpm for 5 minutes, and then cultured in macrophage medium (DMEM supplemented with 10% FBS, 1% penicillin/streptomycin, and 10 ng/mL M-CSF) at 37° C. and 5% CO2 for 3 days (Tanaka S, et al. (1993) J Clin Invest 91(1):257-63) in either 100 mm tissue culture dishes, 4-well or 8-well chamber slides, or 48-well or 96-well tissue culture plates. The medium was changed every other day. To induce osteoclastogenic differentiation, BM cells cultured for 3 days in macrophage medium were further cultured for 5-7 days in osteoclast differentiation medium (DMEM supplemented with 10% FCS, 10 ng/mL M-CSF, and 100 ng/mL RANKL) (McHugh K P, et al. (2000) J Clin Invest 105(4):433-40; Zou W, et al. (2008) Mol Cell 31(3):422-31). These BM-derived osteoclasts were primarily used for the various assays in this study. […] TRAP^+ multinucleated osteoclasts (>3 nuclei) were quantified with the use of a Nikon digital microscope. Osteoclast-mediated bone resorptive activity was quantified using the pit assay (Xu D, et al. (2004) Biochemical Journal 383(Pt 2):219-225). […]

osteoclasts = assay: Pit assay, osteoclast-mediated bone resorption on dentin slices; assay type: cell-based, mice
Source text: TRAP staining was used to identify multinucleated osteoclasts in osteoclastogenic cell cultures or tibia section. Briefly, tibia from control and Shp2 mutant mice were fixed in 4% paraformaldehyde overnight and then decalcified in EDTA solution (14%) till bone tissue was soft. The specimens were then dehydrated according standard procedures and embedded for sectioning. TRAP^+ multinucleated osteoclasts (>3 nuclei) were quantified with the use of a Nikon digital microscope. Osteoclast-mediated bone resorptive activity was quantified using the pit assay (Xu D, et al. (2004) Biochemical Journal 383(Pt 2):219-225). Ethanol-sterilized slices of bovine bone were disposed in individual wells of a 48 well/plate with 1 mL osteoclast culture medium containing 2.5×10^4 BM macrophages (BMM) per well. After 8 to 10 days, all cellular components were removed from bone slices with a brief (10 minute) treatment with 5% sodium hypochlorite. […] The effect of Shp2 inhibition on osteoclast-mediated bone resorption was also studied in order to further test whether pharmacological inhibition of Shp2 could serve as a treatment modality. BMM were cultured on dentin slices in osteoclast medium and in the presence or absence of Shp2 inhibitor NSC-87877 (50 μM) (FIGS. 10A-B).

[3] = test system: osteoclastogenic genes c-Fos, Nfatc1, MMP9, Trap, and Ctsk in bone marrow derived macrophages (BMM); assay: qRT-PCR of osteoclastogenic gene expression in BMM induced by polyethylene or titanium particles; assay type: cell-based, mice; conditions: BMM with PeP or TiP, NSC87877 50 uM, 5 days of culture, normalized to GAPDH
Method: The average size of PeP and TiP is about […] in diameter (FIGS. 8A-B), within the range of orthopedic implant debris size; these particles can be efficiently engulfed by BMM and trigger their osteoclastogenic differentiation (FIGS. 8C-D). 5×10^5 BMM were cultured in BMM medium containing about 2×10^6 of PeP or TiP in the presence or absence of Shp2 inhibitor NSC87877 (50 uM). BMM cultured in osteoclast media (DMEM supplemented with 10% FCS, 10 ng/mL M-CSF, and 100 ng/mL RANKL) were used as a positive control. Total RNA was extracted from BMM after 5 days of culture using RNeasy mini kit (Qiagen, Valencia, Calif.). cDNA was synthesized using 1 μg total RNA with iSCRIPT™ cDNA Synthesis Kit (Bio-Rad, Hercules, Calif.) and q-PCR was performed with RT2SYBR® Green qPCR kit (Bio-Rad) on a CFX384 real-time PCR machine. Osteoclastogenic gene expressions in BMM were measured and normalized to Glyceraldehyde 3-phosphate dehydrogenase (GAPDH); their levels were then compared between NSC87877 treated and untreated groups.

prostate cancer = conditions: delivered as loaded nanoparticles conjugated to T cells; cited from earlier work
[4] = mice given NSC-87877, cited from earlier work

| Compound | bone ongrowth and shear strength [1] | number of osteoclasts (formation of TRAP+ multinucleated osteoclasts) [2] | osteoclast-mediated bone resorption (pits formed on dentin slices) (osteoclasts; BMM from wild type mice in osteoclast medium, NSC-87877 50 μM, 10 days) | ability to resorb bone matrix (pits on dentin slices) (osteoclasts; co-cultured 10 days on dentin slices, FIG. 5: NSC-87877 50 nM, Aldronates 25 nM, or combination) | expression of osteoclastogenic marker genes [3] | tumor burden (prostate cancer) | toxicity in vivo (death versus control-treated or untreated mice) [4] | toxicity in vivo (death versus control-treated or untreated mice) ([4]; listed as NSC 87877) |
| --- | --- | --- | --- | --- | --- | --- | --- | --- |
| NCCCC(O)(P(=O)(O)O)P(=O)(O)O [Alendronate] | increase |  |  |  |  |  |  |  |
| O=S(=O)(O)c1ccc2cc(/N=N/c3cc(S(=O)(=O)O)c4cccnc4c3O)ccc2c1 [NSC87877] |  | inhibited | formed only a few small pits; also recorded: markedly reduced | inhibited | significantly inhibited | effective in reducing tumor burden | did not die significantly sooner | lack of toxicity |

Reference: patent US20150352131A1, “Compositions and Methods for the Prevention and Treatment of Osteolysis and Osteoporosis” (RHODE ISLAND HOSPITAL, priority 2013, published 2015)
